This is an account of results in patent US8507472B2 (priority 2010, dated 2013).

Data set [1] has as its system Alternaria solani. The experiment in a line: Alternaria test (tomato)/protective. Conditions: in vivo. Format: in vivo. The method, then: (§1) Solvent: 49 parts by weight of N,N-dimethylformamide
(§2) Emulsifier: 1 part by weight of alkylaryl polyglycol ether
To produce a suitable preparation of active compound, 1 part by weight of active compound is mixed with the stated amounts of solvent and emulsifier, and the concentrate is diluted with water to the desired concentration.
To test for protective activity, young tomato plants are sprayed with the active compound preparation at the stated application rate. 1 day after the treatment, the plants are inoculated with a spore suspension of Alternaria solani and then remain at 100% rel. humidity and 22° C. for 24 h. The plants then remain at 96% rel. atmospheric humidity and a temperature of 20° C.
(§3) Evaluation is carried out 7 days after the inoculation. 0% means an efficacy which corresponds to that of the control, whereas an efficacy of 100% means that no infection is observed.

Data set [2] deals with Leptosphaeria nodorum. Briefly: Leptosphaeria nodorum test (wheat)/protective. Format: in vivo. The note with it: in vivo. The method, then:
as §1, §2
(§4) To produce a suitable preparation of active compounds, 1 part by weight of active compound is mixed with the stated amounts of solvent and emulsifier, and the concentrate is diluted with water to the desired concentration.
To test for protective activity, young wheat plants are sprayed with the active compound preparation at the stated application rate. 1 day after the treatment, the plants are inoculated with an aqueous spore suspension of Leptosphaeria nodorum and then remain at 100% rel. atmospheric humidity and 22° C. for 48 h. The plants are then placed in a greenhouse at 90% rel. atmospheric humidity and a temperature of 22° C.
(§5) Evaluation is carried out 7-9 days after the inoculation. 0% means an efficacy which corresponds to that of the control, whereas an efficacy of 100% means that no infection is observed.

Data set [3] concerns Phytophthora infestans. Format: in vivo. Conditions: in vivo.
The subject of data set [4] is Pyrenophora teres. The experiment in a line: Pyrenophora teres test (barley)/protective. Type of data set: in vivo. The method, then:
as §1, §2, §4
To test for protective activity, young barley plants are sprayed with the active compound preparation at the stated application rate. 1 day after the treatment, the plants are inoculated with an aqueous spore suspension of Pyrenophora teres and then remain at 100% rel. atmospheric humidity and 22° C. for 48 h. The plants are then placed in a greenhouse at 80% rel. atmospheric humidity and a temperature of 20° C.
as §5

Data set [5] deals with Sphaerotheca fuliginea. The experiment in a line: Sphaerotheca test (cucumber)/protective. Format: in vivo. The note with it: in vivo. The method, then: as §1, §2, §4
To test for protective activity, young cucumber plants are sprayed with the active compound preparation at the stated application rate. 1 day after the treatment, the plants are inoculated with a spore suspension of Sphaerotheca fuliginea. The plants are then placed in a greenhouse at 70% rel. atmospheric humidity and a temperature of 23° C.
as §3

Data set [6] has as its system DON/AcDON production. The experiment in a line: microbe, parasite or virus in culture. Type of data set: cell-based, Fusarium graminearum. Conditions: 7 days at 28° C.
Data set [7] has as its system Fusarium graminearum. Briefly: microbe, parasite or virus in culture. Format: cell-based.
Data set [8] is described as follows: log P determination by HPLC retention times (alkan-2-one calibration).

As for `CCC(=O)Nc1cc(-c2c(-c3ccc(F)cc3)nn3c2CCCCC3)ccn1` [Example 96], the efficacy in % in data set [1] stood at 90%; in data set [2] it was 90%; in data set [3], 70%; in data set [4] (in vivo) it was 100%; in data set [5], 95%.
Turning to `FC(F)(F)c1cccc(-c2nn3c(c2-c2ccncc2)CCC3)c1` [Example 42], the “% inhibition of DON/AcDON at 50 μM” value in data set [6] is given as 98%. Besides, the “% inhibition of the fungal growth of Fusarium graminearum at 50 μM” value (from here on “% inhibition of the fungal growth … at 50 μM”) in data set [7] came out at 100%.
On to `O=C(CC1CC1)Nc1cc(-c2c(-c3ccc(F)cc3)nn3c2COCC3)ccn1` [Example 113], for which the efficacy in % came to 90% in data set [1]; 78% in data set [2]; 70% in data set [3]; 94% in data set [4] (in vivo); 98% in data set [5].
Regarding `O=C(Nc1cc(-c2c(-c3ccc(F)cc3)nn3c2COCC3)ccn1)C1CC1` [Example 93], the efficacy in % in data set [1] worked out at 95%; in data set [2], 80%; in data set [3], 90%; in data set [4] (in vivo), 100%; in data set [5], 98%.
`Fc1cc(-c2c(-c3ccccc3)nn3c2CCC3)ccn1` [Example 61, 3-(2-Fluoropyridin-4-yl)-2-phenyl-5,6-dihydro-4H-pyrrolo[1,2-b]pyrazole] came in with an efficacy in % in data set [4] (500 ppm active compound, barley, protective, evaluation 7-9 days after inoculation) of 70%. In addition, the inhibition at 50 µM worked out at 100% in data set [6] (Fusarium graminearum, 168 h) and 0% in data set [7] (Fusarium graminearum, 72 h, read-out: % inhibition of the fungal growth of Fusarium graminearum at 50 μM). For the same compound, the chromatographic logP in data set [8] (log P(HCOOH), HCOOH, preparation examples in the text) was 2.53; in data set [8] (log P, values marked [b] in Table 1) it was 2.53.
Regarding `CC(C)C(=O)Nc1cc(-c2c(-c3cccs3)nn3c2CCCC3)ccn1` [Example 88], the efficacy in % in data set [1] is 90%; in data set [3], 80%; in data set [4] (in vivo), 90%; in data set [5] it was 95%.
Consider `Fc1cccc(-c2nn3c(c2-c2ccnc(F)c2)CCC3)c1` [Example 54], for which the efficacy in % in data set [1] is recorded as 80%. Further, the “% inhibition of DON/AcDON at 50 μM” value in data set [6] is on record as 100%. Besides, in data set [7], the “% inhibition of the fungal growth … at 50 μM” value turned out to be 0%.
`CC(C)C(=O)Nc1cc(-c2c(-c3ccc(F)cc3)nn3c2CCOC3(C)C)ccn1` [Example 83]: the efficacy in % in data set [1] was found to be 89%; in data set [2] it was 75%; in data set [3] it was 70%; in data set [4] (in vivo) it was 94%; in data set [5], 98%.
In data set [4] (in vivo), `Fc1cc(-c2c(-c3ccc(Cl)cc3)nn3c2CCC3)ccn1` [Example 13] came in with an efficacy in % of 80%. In addition, in data set [6], the “% inhibition of DON/AcDON at 50 μM” value stood at 96%. The “% inhibition of the fungal growth … at 50 μM” value in data set [7] amounted to 17%.
In the case of `COCC(=O)Nc1cc(-c2c(-c3ccc(F)cc3)nn3c2CCOC3(C)C)ccn1` [Example 82], the efficacy in % in data set [1] was 89%; in data set [2], 88%; in data set [3], 70%; in data set [4] (in vivo) it was 94%; in data set [5] it was 95%.
Consider `CC(C)C(=O)Nc1cc(-c2c(-c3ccc(F)cc3)nn3c2COCC3)ccn1` [Example 92], for which the efficacy in % is listed as 90% in data set [1]; 90% in data set [2]; 80% in data set [3]; 95% in data set [4] (in vivo); 98% in data set [5].
As for `CC(=O)Nc1cc(-c2c(-c3ccc(F)cc3)nn3c2CCOC3(C)C)ccn1` [Example 90], the efficacy in % in data set [1] amounted to 95%; in data set [2], 89%; in data set [3], 78%; in data set [4] (in vivo), 95%; in data set [5] it was 95%.
Consider `CCC(=O)Nc1cc(-c2c(-c3cccs3)nn3c2CCCC3)ccn1` [Example 75], for which the efficacy in % was 95% in data set [1], 80% in data set [3], 100% in data set [4] (in vivo) and 95% in data set [5].
Take `CC(C)(C)OC(=O)Nc1cc(-c2c(-c3ccc(F)cc3)nn3c2CCCC3)ccn1` [Example 16]: in data set [6], the “% inhibition of DON/AcDON at 50 μM” value is on record as 93%. In data set [7], the “% inhibition of the fungal growth … at 50 μM” value was determined as 0%.

The inhibition is the share of the control response that was lost under treatment. In general, chromatographic logP refers to a lipophilicity value derived from retention on a column. The low end stands for lower lipophilicity, the high end for higher lipophilicity.
